The experiment deals with costimulatory molecules of LPS-stimulated human dendritic cells. The experiment is described as follows: Costimulatory molecules on LPS-stimulated human monocyte-derived dendritic cells (flow cytometry). Type of experiment: cell-based. Conditions: Dendritic cell, 24 h, LPS 0.1 μg/ml, D-amino acid 10 μM, mean ± SD of three experiments, relative to LPS-induced expression. The method, then: Generation of human monocyte-derived dendritic cells. Peripheral venous blood was obtained from healthy volunteers aged between 20 and 50 years after informed consent. Individuals with allergic disease, acute infection or taking any medication 20 days prior to blood sampling or any history of smoking (personal interview) were excluded prior to blood sampling. All experiments were conducted according to the principles expressed in the Declaration of Helsinki.
Peripheral blood mononuclear cells (PBMC) were isolated from heparinized whole blood by density gradient centrifugation (2000 rpm, 22° C., 20 min) (Biocoll, Biochrom AG, Berlin, Germany). […] Purity and viability of DCs was assessed by flow cytometry (FIG. 9A-C).
Costimulatory molecules on human DCs. The following primary monoclonal antibodies were used: CD83 fluorescein isothiocyanate (FITC); CD1a phycoerythrin (PE); CD86-FITC; CD80-PE; CD14 allophycocyanine (APC); CD40-APC; CD3-peridinin chlorophyll protein (PerCP); HLA-DR-PerCP; mouse immunoglobulins G1 (IgG1) mouse immunoglobulins G1 (IgG1) κ were used as isotype controls using the corresponding fluorochromes (all purchased from BD Biosciences, Heidelberg, Germany). To account for donor dependent variability of DC surface markers, all data were normalized to the expression induced by LPS which was set to 100% after subtraction of background values (FACS Canto, FACS DIVA software, Version 5.0.3, BD Biosciences, Heidelberg, Germany). Murine DC subsets and CD4^+ T cells. Single cell suspensions of splenocytes were obtained by filtering spleens through a 70 μm strainer. Samples were stained with CD3-PB (1:200, Biolegend, San Diego, USA), CD4-APC-H7 (BD, 1:400), CD11c-APC-Cy7 (1:100), Mhc-II-Percp-Cy5 (1:100), CD11b-FITC (1:100), CD80-AF647, CD40-APC (1:100). For intracellular cytokines, total spleen cells were stimulated with anti-CD3 (4 μg/mL, BD Bioscience, Heidelberg, Germany) and anti-CD28 (30 ng/mL, BD Bioscience, Heidelberg, Germany) for 16 h. 1×10^6 of total lung cells were stimulated for 16 h with MACSiBead particles coated with anti-CD3 and anti-CD28 using the T cell activation/expansion kit (Miltenyi Biotec, Bergisch Gladbach, Germany) in TexMACS medium (Miltenyi Biotec) according to the manufactures recommendations. Prior to staining, cells were treated with monensin (0.7 μL/mL, BD Golgi Stop, BD Bioscience, Heidelberg, Germany) for 6 h at 37° C. and intracellularly stained for II-4-PE (1:100, eBioscience, Vienna, Austria according to the manufacturer's protocols. Intracellular staining for Foxp3 was performed by using the Foxp3/Transcription Factor Staining buffer set (eBiosciences, Vienna, Austria) according to the manufacturer's recommendations.
Bioassays for screening for immune modulatory activity in probiotic supernatants. Two biological assays based on down-modulation of costimulatory molecules on human DCs, and of CCL17-secretion by a human Hodgkin lymphoma T cell line (KM-H2) were set up. Human immature DCs were matured with 0.1 μg/mL lipopolysaccharide (LPS) from E. coli (Sigma-Aldrich, St. Louis, USA) in the presence or absence of 200 μL bacteria free supernatants for 24 h followed by flow cytometric analysis of costimulatory molecules.

Where two headings read alike, the source gives them in different places.

With `N[C@H](Cc1c[nH]c2ccccc12)C(=O)O` [D-tryptophan], the activity at 10 µM runs as follows: (read-out: Percentage of CD40 expressing mature DCs) 15.2 ± 6.5%; (read-out: Percentage of CD80 expressing mature DCs) 12.1 ± 1.7%; (read-out: Percentage of CD83 expressing mature DCs) 7.6 ± 3.3%; (read-out: Percentage of CD86 expressing mature DCs) 24.1 ± 2.7%; (read-out: Percentage of HLA-DR expressing mature DCs) 88.9 ± 3%.

Values taken from patent publication US10857128B2, “Methods and compositions for treating inflammatory diseases” (Helmholtz Zentrum München Deutsches Forschungszentrum für …, priority 2017, dated 2020).
